Test results as given in patent US6479531B1, “Gastrin and cholecystokinin receptor ligands” (James Black Foundation Limited, priority 1998, dated 2002).

Key:
[1] = molecular target: T1, CCKA receptor (Cavia porcellus, UniProt Q63931); assay: CCKA binding assay in guinea-pig pancreas membranes; details: [125I]-CCK8(S) 200 pM, with 0.375 μM PD134,308, read-out: CCKA pKi (converted)
T1 construct: The pancreatata were removed from male guineau-pigs (200-300 g; Dunkin Hartley); from tissue; host or cells: pancreas membranes of male Dunkin Hartley guinea-pigs
T1 sequence (Q63931 1-430): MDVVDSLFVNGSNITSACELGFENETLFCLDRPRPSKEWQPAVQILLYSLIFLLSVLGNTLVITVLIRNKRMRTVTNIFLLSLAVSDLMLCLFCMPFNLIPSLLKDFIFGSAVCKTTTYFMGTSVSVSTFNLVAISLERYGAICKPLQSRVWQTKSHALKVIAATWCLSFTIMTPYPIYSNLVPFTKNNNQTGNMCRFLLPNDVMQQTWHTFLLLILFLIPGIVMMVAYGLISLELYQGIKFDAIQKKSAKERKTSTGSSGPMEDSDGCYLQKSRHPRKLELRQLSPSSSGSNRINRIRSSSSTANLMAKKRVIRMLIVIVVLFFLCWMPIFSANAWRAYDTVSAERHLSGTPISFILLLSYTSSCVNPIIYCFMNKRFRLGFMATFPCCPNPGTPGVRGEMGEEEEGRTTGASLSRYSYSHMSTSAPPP
Description: The compounds of certain examples were also tested in a CCKA binding assay as follows:
The pancreatata were removed from male guineau-pigs (200-300 g; Dunkin Hartley) and placed in ice-cold HEPES buffer (pH 7.2 @ 21±3° C.). The pancreatata were homogenised in 40 ml ice-cold HEPES buffer using a polytron (Brinkmann, PT10, setting 10) 4×1 second. The homogenate was centrifuged at 39,800 g for 15 min at 4° C. The supernatant was discarded and the pellet re-suspended using a Teflon-in-glass homogeniser in 20 volumes of fresh buffer and re-centrifuged as above. The final pellet was re-suspended using a Teflon-in-glass homogeniser to a tissue concentration of 1 mg.ml^−1 (original weight), and filtered through a 500 μm pore-size Nytex mesh.
The membranes (400 μl; containing 0.375 μM PD134,308) were incubated for 150 minutes at 21±3° C. in a final volume of 0.5 ml with HEPES buffer containing [^125I]-CCK8 (S) (50 μl; 200 pM) and competing compound. Total and non-specific binding of [^125I]-CCK8 (S) were defined using 50 μl of buffer and 50 μ of 100 nM L-364,718 respectively. The assay was terminated by rapid filtration through pre-soaked Whatman GF/B filters using a Brandell Cell Harvetser. The filters were washed (3×3 ml) with ice-cold 50 mM Tris HCl (pH 7.4 @ 4° C.) and bound radioactivity was determined by counting (1 min) in a gamma counter.

[2] = molecular target: T2, CCKB receptor (Mus musculus, UniProt P56481); assay: CCKB receptor radioligand binding assay in mouse cortical membranes; details: [125I]-CCK8(S) 200 pM, 150 min at 21±3°, read-out: CCKB pKi (converted)
T2 construct: The whole brains from male mice (CD1 22-25 g; Charles River) were removed; from tissue; host or cells: cerebral cortex membranes of male CD1 mice
T2 sequence (P56481 1-453): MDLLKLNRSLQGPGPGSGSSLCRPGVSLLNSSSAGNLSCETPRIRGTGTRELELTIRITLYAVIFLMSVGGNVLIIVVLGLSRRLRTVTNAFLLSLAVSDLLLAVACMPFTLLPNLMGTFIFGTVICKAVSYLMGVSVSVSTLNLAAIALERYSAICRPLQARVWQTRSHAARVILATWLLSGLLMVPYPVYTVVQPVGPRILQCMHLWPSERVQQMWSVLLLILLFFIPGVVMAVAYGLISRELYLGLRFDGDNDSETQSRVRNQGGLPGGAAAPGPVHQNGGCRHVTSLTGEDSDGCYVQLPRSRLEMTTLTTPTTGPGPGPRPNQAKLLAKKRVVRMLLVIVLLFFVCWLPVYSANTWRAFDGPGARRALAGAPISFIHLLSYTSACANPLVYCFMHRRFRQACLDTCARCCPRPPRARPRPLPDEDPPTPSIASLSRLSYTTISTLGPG
In short: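 Bound radioactivity was gamma-counted after rapid GF/B filtration and cold 50 mM Tris-HCl (pH 7.4) washes. The tissue was cerebral cortex from male CD1 mice, prepared as twice-centrifuged membranes in pH 7.2 HEPES/NaCl/KCl/MgCl2/EDTA buffer with bacitracin at 20 mg/ml original wet weight.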

[3] = molecular target: T3, gastrin receptor (Rattus norvegicus, UniProt P30553); assay: gastrin antagonist activity in immature rat stomach assay (pentagastrin dose-response, acid secretion); details: isolated immature rat stomach, cumulative pentagastrin dose-response curves, read-out: Gastrin pKb (converted)
T3 construct: The stomach was excised and flushed with ca. 1 ml of unbuffered physiological saline solution; from tissue; host or cells: isolated whole stomach of immature rats (ca. 21 days old)
T3 sequence (P30553 1-452): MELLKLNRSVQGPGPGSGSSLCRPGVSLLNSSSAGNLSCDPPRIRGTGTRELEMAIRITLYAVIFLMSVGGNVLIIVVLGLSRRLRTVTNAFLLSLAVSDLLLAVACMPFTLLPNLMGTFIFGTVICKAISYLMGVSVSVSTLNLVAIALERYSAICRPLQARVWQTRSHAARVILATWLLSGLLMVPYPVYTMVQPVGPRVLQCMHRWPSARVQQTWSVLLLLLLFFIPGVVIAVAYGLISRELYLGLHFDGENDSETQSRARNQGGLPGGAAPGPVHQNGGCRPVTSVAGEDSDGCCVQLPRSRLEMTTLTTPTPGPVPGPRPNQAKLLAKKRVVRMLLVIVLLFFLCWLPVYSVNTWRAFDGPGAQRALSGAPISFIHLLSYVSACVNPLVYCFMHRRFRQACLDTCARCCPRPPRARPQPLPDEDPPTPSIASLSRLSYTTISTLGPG
In short: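 Gastrin antagonism was measured as the effect on cumulative pentagastrin dose-response curves of acid output, recorded by pH electrode in the perfusate of an excised immature rat stomach (ca. 21 days old). Test compound was placed in the serosal bath (37°, 3×10^−8 M 5-methylfurmethide) 60 min before pentagastrin.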

SMILES | Ki [1] | Ki [2] | Kb [3]
Cc1cc(C)c(-c2nc(C(=O)Nc3ccc(C)c(C(=O)O)c3)c(CCC34CC5CC(CC(C5)C3)C4)[nH]2)c(C)c1 [Example 155, 5-{[5-(2-Adamantan-1-yl-ethyl)-2-(2,4,6-trimethyl-phenyl)-1H-imidazole-4-carbonyl]-amino}-2-methyl-benzoic Acid] | 126 nM | 2.88 nM | 3.24 nM
Cc1ccc(NC(=O)c2nc(C3CC4C=CC3C4)[nH]c2CCC23CC4CC(CC(C4)C2)C3)cc1C(=O)O (racemic) [Example 211, (±)-endo-5-{[5-(2-Adamantan-1-yl-ethyl)-2-bicyclo[2.2.1]hept-5-en-2-yl-1H-imidazole-4-carbonyl]-amino}-2-methyl-benzoic Acid] | 100 nM | 2.29 nM | 2.57 nM
O=C(O)c1cccc(NC(=O)c2[nH]c(C3CCCCC3)nc2CCC23CC4CC(CC(C4)C2)C3)c1 [Example 76, 3-{[5-(2-Adamantan-1-yl-ethyl)-2-cyclohexyl-1H-imidazole-4-carbonyl]-amino}-benzoic Acid] | 631 nM | 25.1 nM | 4.9 nM
O=C(O)Cc1cccc(NC(=O)c2nc(C34CCC(CC3)CC4)[nH]c2COC23CC4CC(CC(C4)C2)C3)c1 [Example 224, (3-{[5-(Adamantan-1-yloxymethyl)-2-bicyclo[2.2.2]oct-1-yl-1H-imidazole-4-carbonyl]-amino}-phenyl)-acetic Acid] | 631 nM |  | 18.2 nM
O=C(O)c1cccc(NC(=O)c2nc([C@@H]3CC4C=C[C@H]3C4)[nH]c2COC23CC4CC(CC(C4)C2)C3)c1 [Example 236] | 794 nM |  | 1.05 nM
O=C(O)c1cccc(NC(=O)c2nc([C@H]3CC4C=C[C@@H]3C4)[nH]c2COC23CC4CC(CC(C4)C2)C3)c1 [Example 235, endo-3-{[5-(Adamantan-1-yloxymethyl)-2-((1S,2S)-bicyclo[2.2.1]hept-5-en-2-yl)-1H-imidazole-4-carbonyl]-amino}-benzoic Acid] | 2510 nM |  | 3.02 nM
O=C(O)c1cccc(NC(=O)c2nc(C34CCC(CC3)CC4)[nH]c2COC23CC4CC(CC(C4)C2)C3)c1 [Example 221, 3-{[5-(Adamantan-1-yloxymethyl)-2-bicyclo[2.2.2]oct-1-yl-1H-imidazole-4-carbonyl]-amino}-benzoic Acid] | 794 nM |  | 0.708 nM
O=C(O)Cc1cccc(NC(=O)c2nc(C3CCCCC3)[nH]c2COC23CC4CC(CC(C4)C2)C3)c1 [Example 219, (3-{[5-(Adamantan-1-yloxymethyl)-2-cyclohexyl-1H-imidazole-4-carbonyl]-amino}-phenyl)-acetic Acid] | 501 nM |  | 69.2 nM
Cc1ccc(NC(=O)c2[nH]c(C3(C)CCCCC3)nc2CCC23CC4CC(CC(C4)C2)C3)cc1C(=O)O [Example 200, 5-{[5-(2-Adamantan-1-yl-ethyl)-2-(1-methyl-cyclohexyl)-1H-imidazole-4-carbonyl}-amino)-2-methyl-benzoic Acid] | 251 nM | 3.8 nM | 0.891 nM
O=C(O)c1cccc(NC(=O)c2nc(C3CCCCC3)[nH]c2COC23CC4CC(CC(C4)C2)C3)c1 [Example 216, 3-{[5-(Adamantan-1-yloxymethyl)-2-cyclohexyl-1H-imidazole-4-carbonyl]-amino}-benzoic Acid] | 501 nM | 12.6 nM | 0.871 nM
